Reference: patent US9113629B2, “4-amino-6-(4-substituted-phenyl)-picolinates and 6-amino-2-(4-substituted-phenyl)-pyrimidine-4-carboxylates and their use as herbicides” (DOW AGROSCIENCES LLC, priority 2013, dated 2015)

system: Key Broadleaf Weed and Crop Species; experiment: Post-emergent Test II herbicidal activity (Table 5); type: in vivo; conditions: post-emergence, 336 h; ABUTH: velvetleaf (Abutilon theophrasti); application rate 70 g ai/ha; post-emergent; 14 days after application; read-out: Visual Growth Reduction (%) 14 Days After Application, ABUTH
How it was run: (§1)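 Injury was rated visually 14 d after treatment on a 0–100% scale against untreated controls. Test compounds, formulated with crop oil concentrate and surfactant and serially diluted down to 1/16× of the top rate, were applied by track sprayer at 187 L/ha onto first- to second-true-leaf seedlings.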

**Q.** Which pest or weed control at 70 g/ha does the source give for `COc1c(N)nc(-c2cc(F)c(C(F)F)cc2F)nc1C(=O)O` [Compound 203] here?
**A.** 30 to 44%

same assay, conditions: post-emergence, 336 h; ABUTH: velvetleaf (Abutilon theophrasti); application rate 140 g ai/ha; post-emergent; 14 days after application; read-out: Visual Growth Reduction (%) 14 Days After Application, ABUTH

**Q.** For `COc1c(N)nc(-c2cc(F)c(C(F)F)cc2F)nc1C(=O)O` [Compound 203], which pest or weed control at 140 g/ha is on record?
**A.** 30 to 44%

same assay, conditions: post-emergence, 336 h; AMARE: redroot pigweed (Amaranthus retroflexus); application rate 70 g ai/ha; post-emergent; 14 days after application; read-out: Visual Growth Reduction (%) 14 Days After Application, AMARE

**Q.** Which pest or weed control at 70 g/ha does the source give for `COc1c(N)nc(-c2cc(F)c(C(F)F)cc2F)nc1C(=O)O` [Compound 203] here?
**A.** 45 to 59%

same assay, conditions: post-emergence, 336 h; AMARE: redroot pigweed (Amaranthus retroflexus); application rate 140 g ai/ha; post-emergent; 14 days after application; read-out: Visual Growth Reduction (%) 14 Days After Application, AMARE

**Q.** Which pest or weed control at 140 g/ha does the source give for `COc1c(N)nc(-c2cc(F)c(C(F)F)cc2F)nc1C(=O)O` [Compound 203] here?
**A.** 95 to 100%

same assay, conditions: post-emergence, 336 h; BRSNN: oilseed-rape, canola (Brassica napus); application rate 70 g ai/ha; post-emergent; 14 days after application; read-out: Visual Growth Reduction (%) 14 Days After Application, BRSNN

**Q.** With `COc1c(N)nc(-c2cc(F)c(C(F)F)cc2F)nc1C(=O)O` [Compound 203] as the compound, how does the pest or weed control at 70 g/ha read?
**A.** 30 to 44%

same assay, conditions: post-emergence, 336 h; BRSNN: oilseed-rape, canola (Brassica napus); application rate 140 g ai/ha; post-emergent; 14 days after application; read-out: Visual Growth Reduction (%) 14 Days After Application, BRSNN

**Q.** For `COc1c(N)nc(-c2cc(F)c(C(F)F)cc2F)nc1C(=O)O` [Compound 203], which pest or weed control at 140 g/ha is on record?
**A.** 45 to 59%

same assay, conditions: post-emergence, 336 h; CHEAL: lambsquarters (Chenopodium album); application rate 70 g ai/ha; post-emergent; 14 days after application; read-out: Visual Growth Reduction (%) 14 Days After Application, CHEAL

**Q.** Which pest or weed control at 70 g/ha does the source give for `COc1c(N)nc(-c2cc(F)c(C(F)F)cc2F)nc1C(=O)O` [Compound 203] here?
**A.** 85 to 94%

same assay, conditions: post-emergence, 336 h; CHEAL: lambsquarters (Chenopodium album); application rate 140 g ai/ha; post-emergent; 14 days after application; read-out: Visual Growth Reduction (%) 14 Days After Application, CHEAL

**Q.** With `COc1c(N)nc(-c2cc(F)c(C(F)F)cc2F)nc1C(=O)O` [Compound 203] as the compound, how does the pest or weed control at 140 g/ha read?
**A.** 95 to 100%

same assay, conditions: post-emergence, 336 h; EPHHL: wild poinsettia (Euphorbia heterophylla); application rate 70 g ai/ha; post-emergent; 14 days after application; read-out: Visual Growth Reduction (%) 14 Days After Application, EPHHL

**Q.** With `COc1c(N)nc(-c2cc(F)c(C(F)F)cc2F)nc1C(=O)O` [Compound 203] as the compound, how does the pest or weed control at 70 g/ha read?
**A.** 95 to 100%

same assay, conditions: post-emergence, 336 h; EPHHL: wild poinsettia (Euphorbia heterophylla); application rate 140 g ai/ha; post-emergent; 14 days after application; read-out: Visual Growth Reduction (%) 14 Days After Application, EPHHL

**Q.** With `COc1c(N)nc(-c2cc(F)c(C(F)F)cc2F)nc1C(=O)O` [Compound 203] as the compound, how does the pest or weed control at 140 g/ha read?
**A.** 95 to 100%

same assay, conditions: post-emergence, 336 h; HELAN: sunflower (Helianthus annuus); application rate 70 g ai/ha; post-emergent; 14 days after application; read-out: Visual Growth Reduction (%) 14 Days After Application, HELAN

**Q.** With `COc1c(N)nc(-c2cc(F)c(C(F)F)cc2F)nc1C(=O)O` [Compound 203] as the compound, how does the pest or weed control at 70 g/ha read?
**A.** 60 to 74%

same assay, conditions: post-emergence, 336 h; HELAN: sunflower (Helianthus annuus); application rate 140 g ai/ha; post-emergent; 14 days after application; read-out: Visual Growth Reduction (%) 14 Days After Application, HELAN

**Q.** Which pest or weed control at 140 g/ha does the source give for `COc1c(N)nc(-c2cc(F)c(C(F)F)cc2F)nc1C(=O)O` [Compound 203] here?
**A.** 75 to 84%

same assay, conditions: post-emergence, 336 h; VIOTR: wild pansy (Viola tricolor); application rate 70 g ai/ha; post-emergent; 14 days after application; read-out: Visual Growth Reduction (%) 14 Days After Application, VIOTR

**Q.** With `COc1c(N)nc(-c2cc(F)c(C(F)F)cc2F)nc1C(=O)O` [Compound 203] as the compound, how does the pest or weed control at 70 g/ha read?
**A.** 0 to 29%

same assay, conditions: post-emergence, 336 h; VIOTR: wild pansy (Viola tricolor); application rate 140 g ai/ha; post-emergent; 14 days after application; read-out: Visual Growth Reduction (%) 14 Days After Application, VIOTR

**Q.** Which pest or weed control at 140 g/ha does the source give for `COc1c(N)nc(-c2cc(F)c(C(F)F)cc2F)nc1C(=O)O` [Compound 203] here?
**A.** 30 to 44%

system: Key Grass and Sedge Weeds as well as Grass Crops; experiment: Post-emergent Test II herbicidal activity (Table 6); type: in vivo; conditions: post-emergence, 336 h, CYPES: yellow nutsedge (Cyperus esculentus), application rate 70 g ai/ha, read-out: Visual Growth Reduction (%) 14 Days After Application, CYPES
How it was run: as §1

**Q.** For `COc1c(N)nc(-c2cc(F)c(C(F)F)cc2F)nc1C(=O)O` [Compound 203], which pest or weed control at 70 g/ha is on record?
**A.** 0 to 29%

same assay, conditions: post-emergence, 336 h, CYPES: yellow nutsedge (Cyperus esculentus), application rate 140 g ai/ha, read-out: Visual Growth Reduction (%) 14 Days After Application, CYPES

**Q.** With `COc1c(N)nc(-c2cc(F)c(C(F)F)cc2F)nc1C(=O)O` [Compound 203] as the compound, how does the pest or weed control at 140 g/ha read?
**A.** 75 to 84%

same assay, conditions: post-emergence, 336 h, DIGSA: crabgrass (Digitaria sanguinalis), application rate 70 g ai/ha, read-out: Visual Growth Reduction (%) 14 Days After Application, DIGSA

**Q.** With `COc1c(N)nc(-c2cc(F)c(C(F)F)cc2F)nc1C(=O)O` [Compound 203] as the compound, how does the pest or weed control at 70 g/ha read?
**A.** 0 to 29%

same assay, conditions: post-emergence, 336 h, DIGSA: crabgrass (Digitaria sanguinalis), application rate 140 g ai/ha, read-out: Visual Growth Reduction (%) 14 Days After Application, DIGSA

**Q.** With `COc1c(N)nc(-c2cc(F)c(C(F)F)cc2F)nc1C(=O)O` [Compound 203] as the compound, how does the pest or weed control at 140 g/ha read?
**A.** 0 to 29%

same assay, conditions: post-emergence, 336 h, ECHCG: barnyardgrass (Echinochloa crus-galli), application rate 70 g ai/ha, read-out: Visual Growth Reduction (%) 14 Days After Application, ECHCG

**Q.** For `COc1c(N)nc(-c2cc(F)c(C(F)F)cc2F)nc1C(=O)O` [Compound 203], which pest or weed control at 70 g/ha is on record?
**A.** 0 to 29%

same assay, conditions: post-emergence, 336 h, ECHCG: barnyardgrass (Echinochloa crus-galli), application rate 140 g ai/ha, read-out: Visual Growth Reduction (%) 14 Days After Application, ECHCG

**Q.** With `COc1c(N)nc(-c2cc(F)c(C(F)F)cc2F)nc1C(=O)O` [Compound 203] as the compound, how does the pest or weed control at 140 g/ha read?
**A.** 0 to 29%

same assay, conditions: post-emergence, 336 h, ORYSA: rice (Oryza sativa), application rate 70 g ai/ha, read-out: Visual Growth Reduction (%) 14 Days After Application, ORYSA

**Q.** With `COc1c(N)nc(-c2cc(F)c(C(F)F)cc2F)nc1C(=O)O` [Compound 203] as the compound, how does the pest or weed control at 70 g/ha read?
**A.** 0 to 29%

same assay, conditions: post-emergence, 336 h, ORYSA: rice (Oryza sativa), application rate 140 g ai/ha, read-out: Visual Growth Reduction (%) 14 Days After Application, ORYSA

**Q.** For `COc1c(N)nc(-c2cc(F)c(C(F)F)cc2F)nc1C(=O)O` [Compound 203], which pest or weed control at 140 g/ha is on record?
**A.** 0 to 29%

same assay, conditions: post-emergence, 336 h, SETFA: giant foxtail (Setaria faberi), application rate 70 g ai/ha, read-out: Visual Growth Reduction (%) 14 Days After Application, SETFA

**Q.** For `COc1c(N)nc(-c2cc(F)c(C(F)F)cc2F)nc1C(=O)O` [Compound 203], which pest or weed control at 70 g/ha is on record?
**A.** 0 to 29%

same assay, conditions: post-emergence, 336 h, SETFA: giant foxtail (Setaria faberi), application rate 140 g ai/ha, read-out: Visual Growth Reduction (%) 14 Days After Application, SETFA

**Q.** With `COc1c(N)nc(-c2cc(F)c(C(F)F)cc2F)nc1C(=O)O` [Compound 203] as the compound, how does the pest or weed control at 140 g/ha read?
**A.** 75 to 84%

same assay, conditions: post-emergence, 336 h, SORVU: grain sorghum (Sorghum vulgare), application rate 70 g ai/ha, read-out: Visual Growth Reduction (%) 14 Days After Application, SORVU

**Q.** With `COc1c(N)nc(-c2cc(F)c(C(F)F)cc2F)nc1C(=O)O` [Compound 203] as the compound, how does the pest or weed control at 70 g/ha read?
**A.** 0 to 29%

same assay, conditions: post-emergence, 336 h, SORVU: grain sorghum (Sorghum vulgare), application rate 140 g ai/ha, read-out: Visual Growth Reduction (%) 14 Days After Application, SORVU

**Q.** With `COc1c(N)nc(-c2cc(F)c(C(F)F)cc2F)nc1C(=O)O` [Compound 203] as the compound, how does the pest or weed control at 140 g/ha read?
**A.** 0 to 29%

same assay, conditions: post-emergence, 336 h, TRZSS (wheat, Triticum aestivum), application rate 70 g ai/ha, read-out: Visual Growth Reduction (%) 14 Days After Application, TRZSS

**Q.** With `COc1c(N)nc(-c2cc(F)c(C(F)F)cc2F)nc1C(=O)O` [Compound 203] as the compound, how does the pest or weed control at 70 g/ha read?
**A.** 0 to 29%

same assay, conditions: post-emergence, 336 h, TRZSS (wheat, Triticum aestivum), application rate 140 g ai/ha, read-out: Visual Growth Reduction (%) 14 Days After Application, TRZSS

**Q.** Which pest or weed control at 140 g/ha does the source give for `COc1c(N)nc(-c2cc(F)c(C(F)F)cc2F)nc1C(=O)O` [Compound 203] here?
**A.** 0 to 29%

same assay, conditions: post-emergence, 336 h, ZEAMX: maize, corn (Zea mays), application rate 70 g ai/ha, read-out: Visual Growth Reduction (%) 14 Days After Application, ZEAMX

**Q.** With `COc1c(N)nc(-c2cc(F)c(C(F)F)cc2F)nc1C(=O)O` [Compound 203] as the compound, how does the pest or weed control at 70 g/ha read?
**A.** 0 to 29%

same assay, conditions: post-emergence, 336 h, ZEAMX: maize, corn (Zea mays), application rate 140 g ai/ha, read-out: Visual Growth Reduction (%) 14 Days After Application, ZEAMX

**Q.** Which pest or weed control at 140 g/ha does the source give for `COc1c(N)nc(-c2cc(F)c(C(F)F)cc2F)nc1C(=O)O` [Compound 203] here?
**A.** 0 to 29%

system: not given; experiment: not given; conditions: not given

**Q.** With `COc1c(N)nc(-c2cc(F)c(C(F)F)cc2F)nc1C(=O)O` [Compound 203] as the compound, how does the melting point read?
**A.** 143.7 to 145.5 °C
